# In patent US10273218B2, “BCL-3 inhibitors” (University College Cardiff Consultants Limited, priority 2014, dated 2019):
# Assays:
# [1] = test system: human breast cancer MDA-MB-231 xenograft; experiment: in vivo metastasis mouse Model 1 (seeding and early colonization of circulating tumour cells); set-up: species or system mice; conditions: 3.5 mg/Kg intraperitoneal daily for 10 days, relative luminescence of thoracic region; for inhibition of metastasis / tumour burden in Model 1: versus controls and compound 12
# Method: In all experiments, each compound was administered by intraperitoneally at 3.5 mg/kg.
# (§1) One model (Model 1) studied the effect of the compound's ability to inhibit the seeding and early colonization of circulating tumour cells at distal sites, most commonly in the lungs and liver. Human tumour cell lines were injected into the bloodstream of recipient mice, followed by single daily intraperitoneal injections of the compound (3.5 mg/kg in 1% DMSO) for 10 consecutive days. Tumour burden was monitored longitudinally for up to 8 weeks in vivo by live luminescence imaging, and subsequently histology performed on affected organs at the end of the experiment.
# as §1, with “Model 1 tested” for “One model (Model 1) studied”, “Bcl3i compounds” for “the compound's ability”, “Bcl3 inhibitor” for “the compound”
# The X axis represents the number of days after xenograft and the Y axis is the relative luminescence of the thoracic region by Xenon IVIS scanning of mice following injection of d-luciferin for 10 minutes.
# MDA-MB-231 human breast cancer cells were used in each of the three xenograft models of metastatic breast cancer.
# [2] = test system: MDA-MB-231-Luc highly metastatic human breast cancer cells; experiment: in vivo metastasis mouse model, disease free survival; set-up: species or system Nude mice; conditions: 3.5 mg/Kg once daily for 10 days; MDA-MB-231-Luc i.v.; monitored up to 49 days
# Method: Nude mice are injected i.v. with 200,000 highly metastatic human breast cancer cells expressing luciferase (MDA-MB-231-Luc) then are given a compound of Formula (I) or Formula (Ia) once daily for about 10 days and are monitored for tumours by total body scan using Xenogen-IVIS. Mice with a luciferase signal above background in repeated scans in any part of their torso are scored as having metastatic disease. Total light emission in the abdominal region is quantified at time points up to 49 days post surgery and plotted as mean total light yield.
# Nude mice were injected i.v. with 200,000 highly metastatic human breast cancer cells expressing luciferase (MDA-MB-231-Luc) then given 3.5 mg/Kg of compound 12, reference compound A, or Reference compound B once daily for 10 days and monitored for tumours by total body scan using Xenogen-IVIS. Mice with a luciferase signal above background in repeated scans in any part of their torso were scored as having metastatic disease. Total light emission in abdominal region was quantified at time points up to 49 days post surgery and plotted as mean total light yield. Control n=12, Reference compound A n=10, Reference compound B n=4; compound 12 n=4.
Compound,melting point,also measured
COc1ccc(C(=O)Nc2cccc(F)c2C(=O)NCCN2CCOCC2)c(F)c1 [Compound 28],105 to 107 °C,inhibition of metastasis / tumour burden in Model 1 [1]: significant reduction in tumour burden compared to controls but reduced effect compared to compound 12
"CN1CCN(CCNC(=O)c2ccccc2NC(=O)c2ccccc2F)CC1 [Compound 49, 2-fluoro-N-(2-((2-(4-methylpiperazin-1-yl)ethyl)carbamoyl)phenyl)benzamide]",116 °C,potency of effect in Model 1 relative to compound 28 [1]: more potent effects than compound 28; inhibition of metastasis / tumour burden in Model 1 [1]: equivalent inhibition of metastasis in vivo to compound 12
"COc1cccc(C(=O)NCCc2ccccc2)c1NC(=O)c1ccccc1F [Compound 84, 2-(2-fluorobenzamido)-3-methoxy-N-phenethylbenzamide]",130 to 132 °C,–
"COc1cccc(C(=O)NCCc2ccccc2)c1NC(=O)c1cccc(F)c1 [Compound 85, 2-(3-fluorobenzamido)-3-methoxy-N-phenethylbenzamide]",99 to 101 °C,–
"COc1cccc(C(=O)NCCc2ccccc2)c1NC(=O)c1ccc(F)cc1 [Compound 86, 2-(4-fluorobenzamido)-3-methoxy-N-phenethylbenzamide]",140 to 142 °C,–
"COc1cccc(C(=O)Nc2c(OC)cccc2C(=O)NCCc2ccccc2)c1 [Compound 91, 3-methoxy-2-(3-methoxybenzamido)-N-phenethylbenzamide]",100 to 102 °C,–
"COc1ccc(C(=O)Nc2c(OC)cccc2C(=O)NCCc2ccccc2)c(OC)c1 [Compound 93, 2-(2,4-dimethoxybenzamido)-3-methoxy-N-phenethylbenzamide]",132 to 134 °C,–
"O=C(Nc1ccccc1C(=O)NCCc1ccccc1)c1cccnc1 [Compound 94, N-(2-(phenethylcarbamoyl)phenyl)nicotinamide]",94 °C,–
"O=C(Nc1ccccc1C(=O)NCCCc1ccccc1)c1ccccc1F [Compound 95, 2-fluoro-N-(2-((3-phenylpropyl)carbamoyl)phenyl)benzamide]",61 to 63 °C,–
"COc1ccc(C(=O)Nc2ccccc2C(=O)NCCCc2ccccc2)cc1 [Compound 96, 2-(4-methoxybenzamido)-N-(3-phenylpropyl)benzamide]",93 to 94 °C,–
"O=C(NCCCc1ccccc1)c1ccccc1NC(=O)c1cccc2ccccc12 [Compound 97, N-(2-((3-phenylpropyl)carbamoyl)phenyl)-1-naphthamide]",98 to 100 °C,–
"O=C(Nc1ccccc1C(=O)NCCCc1ccccc1)c1ccc2ccccc2c1 [Compound 98, N-(2-((3-phenylpropyl)carbamoyl)phenyl)-2-naphthamide]",99 to 101 °C,–
"COc1cccc(C(=O)Nc2ccccc2C(=O)NCCN2CCN(C)CC2)c1 [Compound 101, 2-(3-methoxybenzamido)-N-(2-(4-methylpiperazin-1-yl)ethyl)benzamide]",113 to 115 °C,–
"O=C(Nc1ccccc1C(=O)NCCN1CCNCC1)c1cccc(Cl)c1 [Compound 102, 2-(3-chlorobenzamido)-N-(2-(piperazin-1-yl)ethyl)benzamide]",59 to 61 °C,–
"O=C(Nc1ncccc1C(=O)O)c1ccccc1F [Compound 105, 2-(2-fluorobenzamido)nicotinic acid]",> 90 °C,–
"CN1CCN(CCNC(=O)c2ccccc2NC(=O)c2ccc(F)cc2)CC1 [Compound 107, 2-(4-fluorobenzamido)-N-(2-(4-methylpiperazin-1-yl)ethyl)benzamide]",89 to 91 °C,–
CN1CCN(CCNC(=O)c2ccccc2NC(=O)c2ccc(C(F)(F)F)cc2)CC1 [Compound 108],68 to 71 °C,–
"COc1ccc(C(=O)Nc2cccc(F)c2C(=O)NCCN2CCN(C)CC2)cc1 [Compound 109, 2-fluoro-6-(4-methoxybenzamido)-N-(2-(4-methylpiperazin-1-yl)ethyl)benzamide]",81 to 83 °C,–
"COc1cccc(C(=O)Nc2cccc(F)c2C(=O)NCCN2CCN(C)CC2)c1 [Compound 110, 2-fluoro-6-(3-methoxybenzamido)-N-(2-(4-methylpiperazin-1-yl)ethyl)benzamide]",108 to 110 °C,–
"COc1ccc(C(=O)Nc2ccncc2C(=O)NCCN2CCOCC2)cc1 [Compound 113, 4-(4-methoxybenzamido)-N-(2-morpholinoethyl)nicotinamide]",105 to 107 °C,–
"CN1CCN(CCNC(=O)c2ccccc2NC(=O)c2cccc(C(F)(F)F)c2)CC1 [Compound 114, N-(2-(4-methylpiperazin-1-yl)ethyl)-2-(3-(trifluoromethyl)benzamido) benzamide]",101 to 103 °C,–
O=C(Nc1ccccc1C(=O)NCCN1CCOCC1)c1ccccc1F [Reference compound A],–,disease free survival [2]: 70%
COc1ccc(C(=O)Nc2ccccc2C(=O)NCCN2CCOCC2)cc1 [Reference compound B],–,disease free survival [2]: 50%

# More lines, main results first:
melting point,Compound,also measured
69 to 71 °C,"CN1CCN(CCNC(=O)c2ccccc2NC(=O)c2ccc(OC(F)(F)F)cc2F)CC1 [Compound 115, 2-fluoro-N-(2-((2-(4-methylpiperazin-1-yl)ethyl)carbamoyl)phenyl)-4-(trifluoromethoxy)benzamide]",–
83 to 85 °C,"COc1ccc(C(=O)Nc2ccncc2C(=O)NCCN2CCN(C)CC2)cc1 [Compound 116, 4-(4-methoxybenzamido)-N-(2-(4-methylpiperazin-1-yl)ethyl)nicotinamide]",–
124 to 126 °C,CN1CCN(CCNC(=O)c2ccccc2NC(=O)c2ccccc2C(F)(F)F)CC1 [Compound 117],–
188 to 190 °C,"COc1cccc(C(=O)NCCc2ccccc2)c1NC(=O)c1ccc2ccccc2c1 [Compound 119, N-(2-methoxy-6-(phenethylcarbamoyl)phenyl)-2-naphthamide]",–
152 to 154 °C,"COc1cccc(C(=O)NCCCc2ccccc2)c1NC(=O)c1ccc2ccccc2c1 [Compound 120, N-(2-methoxy-6-((3-phenylpropyl)carbamoyl)phenyl)-2-naphthamide]",–
140 to 142 °C,"COc1cccc(C(=O)NCCCN2CCOCC2)c1NC(=O)c1ccc2ccccc2c1 [Compound 121, N-(2-methoxy-6-(3-morpholinopropylcarbamoyl)phenyl)-2-naphthamide]",–
145 to 147 °C,"COc1cc(C(=O)NCCCc2ccccc2)c(NC(=O)c2ccccc2F)c(OC)c1OC [Compound 124, 2-(2-fluorobenzamido)-3,4,5-trimethoxy-N-(3-phenylpropyl)benzamide]",–
150 to 152 °C,"COc1cccc(C(=O)NCCCc2ccccc2)c1NC(=O)c1cccc2ccccc12 [Compound 125, N-(2-methoxy-6-((3-phenylpropyl)carbamoyl)phenyl)-1-naphthamide]",–
120 to 122 °C,"COc1cc(C(=O)NCCCN2CCOCC2)c(NC(=O)c2cccnc2)c(OC)c1OC [Compound 132, N-(2,3,4-trimethoxy-6-((3-morpholinopropyl)carbamoyl)phenyl) nicotinamide]",–
105 to 107 °C,"COc1cccc(C(=O)NCCN2CCOCC2)c1NC(=O)c1ccccc1F [Compound 145, 2-(2-fluorobenzamido)-3-methoxy-N-(2-morpholinoethyl)benzamide]",–
147 to 149 °C,"O=C(Nc1ccccc1C(=O)NCCN1CCOCC1)c1cccc([N+](=O)[O-])c1 [Compound 146, N-(2-morpholinoethyl)-2-(3-nitrobenzamido)benzamide]",–
138 to 140 °C,"O=C(NCCN1CCOCC1)c1ccccc1NC(=O)c1ccccc1[N+](=O)[O-] [Compound 147, N-(2-morpholinoethyl)-2-(2-nitrobenzamido)benzamide]",–
147 to 149 °C,"O=C(Nc1ccccc1C(=O)NCCN1CCOCC1)c1ccc([N+](=O)[O-])cc1 [Compound 148, N-(2-morpholinoethyl)-2-(4-nitrobenzamido)benzamide]",–
